Measured values taken from US6596900B2, “Fused bicyclic or tricyclic amino acids” (Pfizer Inc, priority 2001, dated 2003).

Columns and labels:
[1] = molecular target: T1, α2δ subunit derived from porcine brain tissue (Sus scrofa, UniProt A0A287BIN3); settings: [3H]gabapentin radioligand; compounds of WO0128978 (prior application); cited from earlier work
T1 construct: the α2δ subunit derived from porcine brain tissue; from tissue; host or cells: porcine brain tissue

[2] = molecular target: T1, α2δ subunit derived from porcine brain tissue; assay: radioligand binding assay using [3H]gabapentin and the α2δ subunit; settings: [3H]gabapentin radioligand binding assay described herein
Description: wherein n is an integer of from 1 to 4, where there are stereocentres, each center may be independently R or S, preferred compounds being those of Formulae I-IV above in which n is an integer of from 2 to 4. The compounds are disclosed as being useful in treating a variety of disorders including epilepsy, faintness attacks, hypokinesia, cranial disorders, neurodegenerative disorders, depression, anxiety, panic, pain, neuropathological disorders, and sleep disorders. Certain of the compounds disclosed in that patent have high activity as measured in a radioligand binding assay using [^3H]gabapentin and the α2δ subunit derived from porcine brain tissue (Gee N. S., Brown J. P., Dissanayake V. U. K., Offord J., Thurlow R., Woodruff G. N., J. Biol. Chem., 1996;271:[…]). Results for some of the compounds are set out in the following table:
The biological activity of the compounds of the invention may be measured in a radioligand binding assay using [^3H]gabapentin and the α2δ subunit derived from porcine brain tissue (Gee N. S., Brown J. P., Dissanayake V. U. K., Offord J., Thurlow R., Woodruff G. N., ADVANCEADVANCE J. Biol. Chem., 1996;271:5879-[…]). Results may be expressed in terms of μM or nM α2δ binding affinity.

T1 sequence (A0A287BIN3 entry or part of it): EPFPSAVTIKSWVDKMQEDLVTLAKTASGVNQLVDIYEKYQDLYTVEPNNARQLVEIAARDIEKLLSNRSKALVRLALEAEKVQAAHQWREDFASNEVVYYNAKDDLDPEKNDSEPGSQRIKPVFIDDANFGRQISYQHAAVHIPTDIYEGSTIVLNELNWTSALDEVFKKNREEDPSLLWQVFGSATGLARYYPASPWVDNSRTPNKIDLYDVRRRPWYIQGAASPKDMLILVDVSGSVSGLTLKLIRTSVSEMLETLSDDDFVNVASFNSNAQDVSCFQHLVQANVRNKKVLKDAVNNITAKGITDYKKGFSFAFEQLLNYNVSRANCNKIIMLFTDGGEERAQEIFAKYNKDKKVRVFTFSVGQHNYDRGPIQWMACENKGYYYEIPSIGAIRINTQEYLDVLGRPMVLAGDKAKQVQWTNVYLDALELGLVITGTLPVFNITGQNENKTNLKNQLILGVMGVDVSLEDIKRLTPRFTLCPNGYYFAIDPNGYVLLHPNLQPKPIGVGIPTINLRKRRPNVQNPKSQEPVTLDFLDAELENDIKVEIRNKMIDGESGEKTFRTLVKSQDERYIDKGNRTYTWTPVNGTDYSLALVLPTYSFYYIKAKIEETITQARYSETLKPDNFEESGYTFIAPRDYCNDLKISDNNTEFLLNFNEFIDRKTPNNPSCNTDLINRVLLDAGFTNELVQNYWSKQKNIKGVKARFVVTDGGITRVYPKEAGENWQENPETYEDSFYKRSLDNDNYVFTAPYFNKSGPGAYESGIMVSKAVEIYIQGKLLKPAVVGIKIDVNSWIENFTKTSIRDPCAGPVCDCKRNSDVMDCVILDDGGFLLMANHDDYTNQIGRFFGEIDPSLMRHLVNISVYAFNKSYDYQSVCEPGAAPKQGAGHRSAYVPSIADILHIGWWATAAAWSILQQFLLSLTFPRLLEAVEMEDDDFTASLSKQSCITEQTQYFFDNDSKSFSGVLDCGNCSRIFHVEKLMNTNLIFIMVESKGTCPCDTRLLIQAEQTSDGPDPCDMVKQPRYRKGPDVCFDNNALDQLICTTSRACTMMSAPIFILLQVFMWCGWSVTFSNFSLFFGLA

For NCC1(CC(=O)O)C[C@H]2CC[C@@H]2C1 (racemic) [(+/−)-(1α, 5β)(3-Aminomethyl-bicyclo[3.2.0]hept-3-yl)-acetic acid], the α2δ binding affinity [1] is given as 2.86 µM.
For Cl.NC[C@]1(CC(=O)O)C[C@H]2CCC[C@H]21 [Example 1, [(1R,5R,6S)-6-(Aminomethyl)bicyclo[3.2.0]hept-6-yl]acetic acid hydrochloride], the binding affinities [2] was 46.8 nM and the melting point was 198 °C.
In the case of NC[C@]1(CC(=O)O)C[C@H]2CC[C@H]2C1 [(1α, 3α, 5α)(3-Aminomethyl-bicyclo[3.2.0]hept-3-yl)-acetic acid], the α2δ binding affinity [1] is listed as 0.038 µM.
In the case of NC[C@@]1(CC(=O)O)C[C@H]2CC[C@H]2C1 [((1α, 3β, 5α)(3-Aminomethyl-bicyclo[3.2.0]hept-3-yl)-acetic acid], the α2δ binding affinity [1] is listed as 0.332 µM.
Cl.NC[C@]1(CC(=O)O)C[C@H]2CCCC[C@H]21 [Example 4, [(1R,6R,7S)-7-(Aminomethyl)bicyclo[4.2.0]oct-7-yl]acetic acid hydrochloride] gave a binding affinities [2] of 600 nM.
